Data: ChEMBL document CHEMBL5696442, “Discovery of type II inhibitors of TGFβ-activated kinase 1 (TAK1) and mitogen-activated protein kinase kinase kinase kinase 2 (MAP4K2)” (J Med Chem, 2015)
Calls of active or inactive are those of the source. The calls are words filed in the database; no cut-off is given here.

Experiments:
[1] = target: Mitogen-activated protein kinase kinase kinase kinase 1 (Homo sapiens) (UniProt Q92918); assay: Inhibition of HPK1 (unknown origin) at 10 uM by Ambit Kinomescan binding assay relative to control; values are per cent of control
[2] = target: Tyrosine-protein kinase FRK (Homo sapiens) (UniProt P42685); assay: Inhibition of FRK (unknown origin) at 10 uM by Ambit Kinomescan binding assay relative to control
[3] = target: DNA-PK/Ku70/Ku85 (Homo sapiens) (UniProt P78527+P12956+P13010); assay: Inhibition of DNAPK ATP labeling site harbouring KGGSWIQEINVAEKNWYPR in human A-375 cells at 5 uM by KiNativ Profiling analysis relative to control; assay type: cell-based
[4] = target: Peripheral plasma membrane protein CASK (Homo sapiens) (UniProt O14936); assay: Inhibition of CASK Lys1 labeling site in human A-375 cells at 0.05 uM by KiNativ Profiling analysis relative to control
[5] = target: Mitogen-activated protein kinase 15 (Homo sapiens) (UniProt Q8TD08); assay: Inhibition of ERK8 (unknown origin) at 10 uM by Ambit Kinomescan binding assay
[6] = target: Calcium/calmodulin-dependent protein kinase type 1 (Homo sapiens) (UniProt Q14012); assay: Inhibition of CaMK1a K1 labeling site in human Huh-7 cells at 10 uM by KiNativ Profiling analysis relative to control; assay type: cell-based
[7] = target: T1, Serine/threonine-protein kinase D1 (Homo sapiens) (UniProt Q15139); assay: Inhibition of PRKD1 (unknown origin) at 10 uM by Ambit Kinomescan binding assay
T1 sequence (whole entry): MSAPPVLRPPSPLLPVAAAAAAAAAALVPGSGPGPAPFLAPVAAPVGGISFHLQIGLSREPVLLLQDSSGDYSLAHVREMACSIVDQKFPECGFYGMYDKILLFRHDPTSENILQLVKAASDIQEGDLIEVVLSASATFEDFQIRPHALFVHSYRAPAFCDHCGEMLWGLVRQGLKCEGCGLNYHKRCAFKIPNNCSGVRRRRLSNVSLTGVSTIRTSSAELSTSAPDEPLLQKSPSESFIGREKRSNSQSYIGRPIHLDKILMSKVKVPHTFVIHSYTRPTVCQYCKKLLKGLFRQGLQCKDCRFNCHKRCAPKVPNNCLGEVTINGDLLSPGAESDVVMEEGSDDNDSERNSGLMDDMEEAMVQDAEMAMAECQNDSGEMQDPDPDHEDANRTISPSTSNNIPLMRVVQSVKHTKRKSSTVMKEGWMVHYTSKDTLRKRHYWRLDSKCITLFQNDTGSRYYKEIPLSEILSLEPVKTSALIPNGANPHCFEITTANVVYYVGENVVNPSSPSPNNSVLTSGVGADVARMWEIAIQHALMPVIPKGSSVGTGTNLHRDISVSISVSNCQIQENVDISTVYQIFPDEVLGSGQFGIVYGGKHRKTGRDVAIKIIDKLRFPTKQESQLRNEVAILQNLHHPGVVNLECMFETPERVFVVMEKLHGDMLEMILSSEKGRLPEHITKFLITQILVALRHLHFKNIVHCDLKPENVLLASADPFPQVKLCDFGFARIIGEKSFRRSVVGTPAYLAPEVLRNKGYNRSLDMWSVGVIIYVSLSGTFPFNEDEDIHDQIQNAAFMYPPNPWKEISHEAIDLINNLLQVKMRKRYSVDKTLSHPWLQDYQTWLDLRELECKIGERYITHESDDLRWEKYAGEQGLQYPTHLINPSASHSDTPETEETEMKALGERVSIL

[8] = target: Protein-tyrosine kinase 6 (Homo sapiens) (UniProt Q13882); assay: Inhibition of BRK (unknown origin) at 10 uM by Ambit Kinomescan binding assay relative to control
[9] = target: Serine/threonine-protein kinase MARK2 (Homo sapiens) (UniProt Q7KZI7); assay: Inhibition of MARK2 Lys1 labeling site harbouring HILTGKEVAVKIIDKTQLNSSSLQK in human Huh-7 cell lysate at 1 uM by KiNativ Profiling analysis relative to control; assay type: subcellular
[10] = target: Microtubule-associated serine/threonine-protein kinase 4 (Homo sapiens) (UniProt O15021); assay: Inhibition of MAST4 Lys2 labeling site in human Huh-7 cells at 1 uM by KiNativ Profiling analysis relative to control; assay type: cell-based
[11] = test system: Mast/stem cell growth factor receptor Kit (Homo sapiens), P10721 [L576P]; assay: Inhibition of KIT L576P mutant (unknown origin) at 1 uM by Ambit Kinomescan binding assay relative to control; values are per cent of control
[12] = target: Uncharacterized serine/threonine-protein kinase SBK3 (Homo sapiens) (UniProt P0C264); assay: Inhibition of SgK110 (unknown origin) at 1 uM by Ambit Kinomescan binding assay relative to control
[13] = target: T2, Dual specificity mitogen-activated protein kinase kinase 6 (Homo sapiens) (UniProt P52564); assay: Inhibition of MAP2K6 Lys1 labeling site in human A-375 cells at 5 uM by KiNativ Profiling analysis relative to control; assay type: cell-based
T2 sequence (whole entry): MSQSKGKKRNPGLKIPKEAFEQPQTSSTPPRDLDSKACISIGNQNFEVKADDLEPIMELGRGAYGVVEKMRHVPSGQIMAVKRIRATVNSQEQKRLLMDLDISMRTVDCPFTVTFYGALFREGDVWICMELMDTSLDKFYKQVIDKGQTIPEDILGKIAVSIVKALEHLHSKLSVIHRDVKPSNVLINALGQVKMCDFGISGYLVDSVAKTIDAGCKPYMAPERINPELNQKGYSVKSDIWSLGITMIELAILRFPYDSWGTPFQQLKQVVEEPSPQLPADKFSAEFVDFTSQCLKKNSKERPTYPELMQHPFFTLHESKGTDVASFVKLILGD

[14] = target: T3, Serine/threonine-protein kinase Sgk3 (Homo sapiens) (UniProt Q96BR1); assay: Inhibition of SGK3 Lys1 labeling site in human A-375 cells at 5 uM by KiNativ Profiling analysis relative to control; assay type: cell-based
T3 sequence (whole entry): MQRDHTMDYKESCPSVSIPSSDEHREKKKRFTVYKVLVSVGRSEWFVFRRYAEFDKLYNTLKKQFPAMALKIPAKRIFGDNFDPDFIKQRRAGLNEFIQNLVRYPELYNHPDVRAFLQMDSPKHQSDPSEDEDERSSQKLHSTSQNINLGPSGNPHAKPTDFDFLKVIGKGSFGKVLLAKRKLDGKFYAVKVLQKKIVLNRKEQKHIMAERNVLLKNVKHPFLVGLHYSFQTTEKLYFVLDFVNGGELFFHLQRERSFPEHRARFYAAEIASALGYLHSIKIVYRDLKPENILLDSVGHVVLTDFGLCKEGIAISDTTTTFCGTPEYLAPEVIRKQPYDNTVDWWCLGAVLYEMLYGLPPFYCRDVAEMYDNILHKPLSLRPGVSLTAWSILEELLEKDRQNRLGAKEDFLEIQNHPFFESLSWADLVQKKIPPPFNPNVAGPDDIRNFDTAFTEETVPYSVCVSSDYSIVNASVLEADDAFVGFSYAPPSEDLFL

Sequence of Microtubule-associated serine/threonine-protein kinase 4 (Homo sapiens) (O15021 whole entry): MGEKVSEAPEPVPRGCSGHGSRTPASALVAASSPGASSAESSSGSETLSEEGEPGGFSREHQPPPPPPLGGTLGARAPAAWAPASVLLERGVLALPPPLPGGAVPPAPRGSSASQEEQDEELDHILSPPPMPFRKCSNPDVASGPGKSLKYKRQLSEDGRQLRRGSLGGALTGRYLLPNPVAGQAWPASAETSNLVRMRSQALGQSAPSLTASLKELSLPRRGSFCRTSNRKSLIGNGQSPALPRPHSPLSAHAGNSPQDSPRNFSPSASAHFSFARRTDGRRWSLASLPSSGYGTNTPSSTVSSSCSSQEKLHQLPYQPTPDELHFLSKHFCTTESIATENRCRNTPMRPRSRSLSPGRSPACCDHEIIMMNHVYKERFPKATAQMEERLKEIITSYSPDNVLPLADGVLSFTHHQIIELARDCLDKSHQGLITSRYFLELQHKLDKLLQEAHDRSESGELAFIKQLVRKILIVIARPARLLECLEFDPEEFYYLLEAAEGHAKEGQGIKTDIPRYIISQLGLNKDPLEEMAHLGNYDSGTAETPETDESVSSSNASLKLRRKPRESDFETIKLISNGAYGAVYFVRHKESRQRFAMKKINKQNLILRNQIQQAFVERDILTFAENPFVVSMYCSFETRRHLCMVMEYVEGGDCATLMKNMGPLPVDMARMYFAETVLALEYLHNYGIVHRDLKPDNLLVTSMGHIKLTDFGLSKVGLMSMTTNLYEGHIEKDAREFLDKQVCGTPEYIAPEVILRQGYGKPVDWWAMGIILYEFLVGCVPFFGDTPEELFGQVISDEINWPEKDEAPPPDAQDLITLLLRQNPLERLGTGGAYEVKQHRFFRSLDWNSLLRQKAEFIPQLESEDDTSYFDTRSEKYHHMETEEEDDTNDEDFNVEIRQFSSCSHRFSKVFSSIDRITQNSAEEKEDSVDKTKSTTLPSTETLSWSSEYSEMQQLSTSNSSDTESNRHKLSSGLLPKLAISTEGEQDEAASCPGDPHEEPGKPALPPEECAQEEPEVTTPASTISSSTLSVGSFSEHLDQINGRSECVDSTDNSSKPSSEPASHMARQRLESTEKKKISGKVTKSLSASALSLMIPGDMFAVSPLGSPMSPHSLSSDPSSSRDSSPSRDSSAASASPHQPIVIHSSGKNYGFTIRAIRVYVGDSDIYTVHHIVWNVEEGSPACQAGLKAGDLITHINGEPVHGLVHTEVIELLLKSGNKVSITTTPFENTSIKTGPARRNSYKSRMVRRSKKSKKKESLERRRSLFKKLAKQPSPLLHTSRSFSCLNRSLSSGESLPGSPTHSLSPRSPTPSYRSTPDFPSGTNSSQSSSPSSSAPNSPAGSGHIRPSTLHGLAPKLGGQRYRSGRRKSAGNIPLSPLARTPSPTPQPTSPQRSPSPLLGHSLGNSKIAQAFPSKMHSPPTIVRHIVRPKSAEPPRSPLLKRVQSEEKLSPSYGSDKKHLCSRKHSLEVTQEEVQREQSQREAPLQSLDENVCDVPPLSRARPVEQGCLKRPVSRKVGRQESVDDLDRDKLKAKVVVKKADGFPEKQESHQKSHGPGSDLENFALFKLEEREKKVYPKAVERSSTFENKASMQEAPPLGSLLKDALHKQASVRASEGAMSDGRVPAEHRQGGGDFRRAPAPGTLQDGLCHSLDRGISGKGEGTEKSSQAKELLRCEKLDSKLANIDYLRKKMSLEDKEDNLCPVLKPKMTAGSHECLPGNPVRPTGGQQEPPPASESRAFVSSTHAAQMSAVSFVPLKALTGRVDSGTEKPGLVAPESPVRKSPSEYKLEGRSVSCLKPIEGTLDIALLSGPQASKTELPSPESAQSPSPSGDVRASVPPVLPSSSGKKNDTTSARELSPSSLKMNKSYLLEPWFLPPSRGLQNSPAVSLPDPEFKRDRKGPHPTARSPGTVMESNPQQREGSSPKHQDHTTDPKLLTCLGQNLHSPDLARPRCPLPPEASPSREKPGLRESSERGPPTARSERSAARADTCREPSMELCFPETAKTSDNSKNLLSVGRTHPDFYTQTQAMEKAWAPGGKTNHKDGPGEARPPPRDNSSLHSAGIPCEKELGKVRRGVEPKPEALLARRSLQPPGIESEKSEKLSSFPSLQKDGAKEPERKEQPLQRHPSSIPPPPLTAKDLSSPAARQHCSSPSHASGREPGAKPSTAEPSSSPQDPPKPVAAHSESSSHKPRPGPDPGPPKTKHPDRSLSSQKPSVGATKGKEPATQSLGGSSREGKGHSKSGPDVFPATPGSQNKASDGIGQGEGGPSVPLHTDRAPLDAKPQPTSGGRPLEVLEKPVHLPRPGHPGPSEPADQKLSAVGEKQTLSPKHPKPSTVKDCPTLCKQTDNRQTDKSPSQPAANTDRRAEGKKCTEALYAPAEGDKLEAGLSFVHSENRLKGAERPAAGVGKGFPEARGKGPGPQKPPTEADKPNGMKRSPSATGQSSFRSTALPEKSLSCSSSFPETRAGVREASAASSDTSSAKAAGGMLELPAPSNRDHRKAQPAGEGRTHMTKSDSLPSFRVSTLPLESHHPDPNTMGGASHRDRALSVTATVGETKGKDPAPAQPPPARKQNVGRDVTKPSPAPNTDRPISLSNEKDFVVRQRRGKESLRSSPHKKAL
Sequence of Mitogen-activated protein kinase kinase kinase kinase 1 (Homo sapiens) (Q92918 whole entry, looked up): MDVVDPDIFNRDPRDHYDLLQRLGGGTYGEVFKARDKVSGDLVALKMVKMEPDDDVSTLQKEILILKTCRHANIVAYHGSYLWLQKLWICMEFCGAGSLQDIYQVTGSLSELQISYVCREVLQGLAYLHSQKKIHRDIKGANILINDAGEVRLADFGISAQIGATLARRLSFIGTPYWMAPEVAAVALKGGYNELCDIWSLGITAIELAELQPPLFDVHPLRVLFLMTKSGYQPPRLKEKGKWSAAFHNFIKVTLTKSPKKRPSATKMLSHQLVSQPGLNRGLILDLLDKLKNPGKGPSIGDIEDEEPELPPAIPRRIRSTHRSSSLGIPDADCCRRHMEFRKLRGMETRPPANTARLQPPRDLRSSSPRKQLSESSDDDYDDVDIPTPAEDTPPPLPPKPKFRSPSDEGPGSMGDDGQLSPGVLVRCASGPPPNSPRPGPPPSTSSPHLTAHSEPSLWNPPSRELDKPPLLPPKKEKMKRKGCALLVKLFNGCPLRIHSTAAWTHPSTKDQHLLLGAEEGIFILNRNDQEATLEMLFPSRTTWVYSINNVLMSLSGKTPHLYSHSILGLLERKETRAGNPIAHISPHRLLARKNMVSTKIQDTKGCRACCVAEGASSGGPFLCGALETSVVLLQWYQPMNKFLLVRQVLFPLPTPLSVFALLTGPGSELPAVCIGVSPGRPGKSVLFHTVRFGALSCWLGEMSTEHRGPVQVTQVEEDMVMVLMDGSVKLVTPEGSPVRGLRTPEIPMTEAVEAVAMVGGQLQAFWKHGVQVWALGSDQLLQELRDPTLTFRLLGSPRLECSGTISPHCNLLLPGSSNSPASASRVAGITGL
Sequence of Protein-tyrosine kinase 6 (Homo sapiens) (Q13882 whole entry, looked up): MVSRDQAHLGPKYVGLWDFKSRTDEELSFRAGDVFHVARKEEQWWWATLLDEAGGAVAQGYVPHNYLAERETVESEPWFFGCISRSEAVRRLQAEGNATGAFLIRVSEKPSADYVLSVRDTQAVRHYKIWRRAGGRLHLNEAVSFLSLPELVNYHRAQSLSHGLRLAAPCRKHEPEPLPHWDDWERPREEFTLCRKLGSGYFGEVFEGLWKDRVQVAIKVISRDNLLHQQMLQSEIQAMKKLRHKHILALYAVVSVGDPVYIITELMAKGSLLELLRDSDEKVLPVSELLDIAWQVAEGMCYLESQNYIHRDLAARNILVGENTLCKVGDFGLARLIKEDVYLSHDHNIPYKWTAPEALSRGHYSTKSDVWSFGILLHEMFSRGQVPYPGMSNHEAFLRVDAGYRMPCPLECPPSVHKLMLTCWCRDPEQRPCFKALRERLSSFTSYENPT
Sequence of Tyrosine-protein kinase FRK (Homo sapiens) (P42685 whole entry): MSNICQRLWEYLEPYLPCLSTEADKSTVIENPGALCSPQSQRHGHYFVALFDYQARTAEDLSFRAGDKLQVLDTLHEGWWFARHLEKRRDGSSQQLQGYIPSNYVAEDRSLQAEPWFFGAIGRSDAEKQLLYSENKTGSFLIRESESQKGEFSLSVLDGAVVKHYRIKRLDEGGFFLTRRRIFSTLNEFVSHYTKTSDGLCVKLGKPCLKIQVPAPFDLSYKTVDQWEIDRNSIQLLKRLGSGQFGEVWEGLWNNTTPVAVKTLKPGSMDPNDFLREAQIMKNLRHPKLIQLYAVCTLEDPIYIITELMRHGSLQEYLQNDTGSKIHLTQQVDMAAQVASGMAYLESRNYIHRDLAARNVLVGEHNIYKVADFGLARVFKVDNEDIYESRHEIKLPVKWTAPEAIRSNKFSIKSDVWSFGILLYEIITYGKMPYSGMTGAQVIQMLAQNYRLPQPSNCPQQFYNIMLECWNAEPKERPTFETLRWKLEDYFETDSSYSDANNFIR
Sequence of Mitogen-activated protein kinase 15 (Homo sapiens) (Q8TD08 whole entry): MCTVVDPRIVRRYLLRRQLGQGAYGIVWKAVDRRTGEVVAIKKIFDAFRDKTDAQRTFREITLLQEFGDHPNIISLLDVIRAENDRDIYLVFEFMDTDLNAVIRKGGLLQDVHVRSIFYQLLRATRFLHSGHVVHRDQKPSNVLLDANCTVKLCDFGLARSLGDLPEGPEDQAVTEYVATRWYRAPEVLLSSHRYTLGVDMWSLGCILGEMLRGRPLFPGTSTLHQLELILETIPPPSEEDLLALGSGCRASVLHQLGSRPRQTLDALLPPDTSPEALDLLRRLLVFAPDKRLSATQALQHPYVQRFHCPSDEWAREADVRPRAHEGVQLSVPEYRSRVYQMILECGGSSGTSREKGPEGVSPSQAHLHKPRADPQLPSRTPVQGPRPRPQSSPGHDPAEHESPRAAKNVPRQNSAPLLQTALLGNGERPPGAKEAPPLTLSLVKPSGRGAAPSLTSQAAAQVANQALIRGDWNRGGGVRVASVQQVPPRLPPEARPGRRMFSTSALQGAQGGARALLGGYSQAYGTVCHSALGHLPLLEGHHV

In the case of `CCN1CCN(Cc2ccc(NC(=O)c3ccc(C)c(Oc4ccnc5[nH]ccc45)c3)cc2C(F)(F)F)CC1`, the % of control [1] was 1.6%, the inhibition [2] was 0.7% and the inhibition [3] was 7.9%. For the same molecule, the inhibition [4] was 10.9%, the inhibition [5] was “inactive” and the inhibition [6] was 48.2%. The inhibition [7] was “inactive” and the inhibition [8] was 28%.
With `CNc1cc(Oc2cc(C(=O)Nc3cc(N4CCN(C)CC4)cc(C(F)(F)F)c3)ccc2C)ncn1` the inhibition [9] was -1.9% and the inhibition [10] was 30.2%.
Molecule `CCN1CCN(Cc2ccc(NC(=O)c3ccc(C)c(/C=C/c4cnc5[nH]ccc5c4OC)c3)cc2C(F)(F)F)CC1` has a residual activity [11] of 0.15%, an inhibition [12] of 45% and an inhibition [13] of -0.7%. It also gave an inhibition [14] of -9.4%.
